According to ChEMBL document CHEMBL1158224, “Bioactive ent-kaurene diterpenoids from Annona senegalensis” (J Nat Prod, 1996):
In brackets after ≈: the same amount, converted by molar mass.

Key:
[1] = system: MCF7; test: Cytotoxicity against human MCF7 cells after 7 days by MTT assay; assay type: functional; conditions: MCF7, 168 h, read-out: ED50 (the source's name)
[2] = system: PC-3; test: Cytotoxicity against human PC3 cells after 7 days by MTT assay; assay type: functional; conditions: PC-3, 168 h, read-out: ED50 (the source's name)
[3] = system: HT-29; test: Cytotoxicity against human HT29 cells after 7 days by MTT assay; assay type: functional; conditions: HT-29, 168 h, read-out: ED50 (the source's name)
[4] = system: A498; test: Cytotoxicity against human A498 cells after 7 days by MTT assay; assay type: functional; conditions: A498, 168 h, read-out: ED50 (the source's name)
[5] = system: A549; test: Cytotoxicity against human A549 cells after 7 days by MTT assay; assay type: functional; conditions: A549, 168 h, read-out: ED50 (the source's name)
[6] = system: MIA PaCa-2; test: Cytotoxicity against human MIAPaCa2 cells after 7 days by MTT assay; assay type: functional; conditions: MIA PaCa-2, 168 h, read-out: ED50 (the source's name)
[7] = Toxicity against brine shrimp; assay type: organism-based; conditions: artemia, in vivo

CC(=O)OC[C@@]1(OC(C)=O)C[C@@]23CC[C@H]4[C@@](C)(CCC[C@@]4(C)C(=O)O)[C@H]2CC[C@@H]1C3
EC50 [1]: > 20 µg/mL | EC50 [2]: 17.7 µg/mL (≈ 42.1 µM)

COC(=O)[C@]1(C)CCC[C@@]2(C)[C@H]3CC[C@@H]4C[C@@]3(CC[C@@H]21)C[C@@H]4C(=O)O
EC50 [1]: > 20 µg/mL | EC50 [2]: 17.4 µg/mL (≈ 49.9 µM)

COc1cccc2c1C(=O)c1c(O)c3c(c(O)c1C2=O)C[C@@](O)(C(=O)CO)C[C@@H]3O[C@H]1C[C@H](N)[C@H](O)[C@H](C)O1 [DOXORUBICIN]
EC50 [3]: 0.0437 µg/mL (≈ 0.0804 µM) | EC50 [4]: 0.01 µg/mL (≈ 0.0184 µM) | EC50 [1]: 0.152 µg/mL (≈ 0.28 µM) | EC50 [5]: 0.00506 µg/mL (≈ 0.00931 µM) | EC50 [6]: 0.00379 µg/mL (≈ 0.00697 µM) | EC50 [2]: 0.0223 µg/mL (≈ 0.041 µM)

C=C1C[C@@]23CC[C@H]4[C@@](C)(CCC[C@@]4(C)C(=O)O)[C@@H]2CC[C@@H]1C3 [KAURENOIC ACID]
EC50 [3]: 31.4 µg/mL (≈ 104 µM) | EC50 [4]: 48 µg/mL (≈ 159 µM) | EC50 [1]: 1 µg/mL (≈ 3.31 µM) | EC50 [5]: 13.6 µg/mL (≈ 44.9 µM) | EC50 [6]: 22.1 µg/mL (≈ 73.2 µM) | EC50 [2]: 15.2 µg/mL (≈ 50.2 µM) | LC50 [7]: 16 µg/mL (≈ 52.9 µM)
